Experimental data published in patent US11559527B2 (priority 2017, dated 2023).

Legend:
Format in all cases: cell-based, Human
[1] = PrestoBlue viability assay; details: human, MCF7 breast cancer cells, read-out: reduction of MCF7 cell viability
Protocol: (§1) The inventors sought to evaluate whether mDIVI-1-induced inhibition of DRP1 has repercussion on the viability of MCF7 cells. […] Similar results were obtained using the Bradford assay, which measures protein content, as an indicator of cell viability.
(§2) CELL CULTURE: Human MCF7 breast cancer cells were purchased from ATCC and maintained in complete media: DMEM (D6546, Sigma) supplemented with 10% fetal bovine serum (F7524, Sigma), 100 units/ml of penicillin, 100 μg/ml, streptomycin (P0781, Sigma) and 1% Glutamax (#35050087, Life Technologies). For all experiments, cells were incubated in a 5% CO2 atmosphere at 37° C.
(§3) PRESTOBLUE VIABILITY ASSAY: Cell viability was measured using the resazurin-based PrestoBlue reagent (A-13261, ThermoFisher Scientific). Briefly, 5×10^3 MCF7 cells were seeded into 96-well black plates. When cells were attached mDIVI-1 or vehicle were added to the cells. After 2 or 5 days, PrestoBlue reagent was added to the cells and incubated for 2 hours. Plates were finally read using a FluoStar Omega plate reader (BMG Labtech) at an excitation wavelength of 544 and an emission wavelength of 590 nm. Background measurements were subtracted from all values.

MCF7 cells [2] = test: PrestoBlue viability assay; details: 10 μM, 48 hours
Protocol: as §1, §2, §3

MCF7 cells [3] = test: Mitochondrial staining with Mitotracker Deep Red (microscopy); details: 10 μM, 2- and 5-day treatment
Source text: In order to assess whether the inhibition of DRP1 was actually being translated into a reduction in mitochondrial fission, the inventors stained the mitochondria of MCF7 cells with Mitotracker Deep Red, which is a marker of mitochondrial mass. […] The original images are black background with shades of red over the cells, whereas the images in FIG. 3 have been color-inverted and generated in grey scale. Mitochondrial mass was also quantified by flow cytometry. FIGS. 4A-4C show results of mitochondrial mass quantification. In FIG. 4A, Mitotracker Deep Red mean intensity relative to vehicle intensity is shown for 2-day and 5-day treatments.
MITOCHONDRIAL STAINING: One hundred thousand MCF7 cells were seeded onto coverslips in 12-well plates. When cells were attached, mDIVI-1 and vehicle treatments were performed in triplicate. After 2 days and 5 days, mitochondria were labeled by incubating cells for 15 min at 37° C. with 25 nM of MitoTracker DeepRed (M22426, Invitrogen) diluted in PBS (D8662, Sigma). Then, cells were washed with PBS, fixed in 2% paraformaldehyde (28908, Thermo Scientific) in PBS for 30 minutes at room temperature and mounted with ProLong® Gold Antifade Mountant reagent with DAPI (P36935, Invitrogen, Inc.). […]

MCF7 cells [4] = test: Reactive oxygen species (CM-H2DCFDA, flow cytometry)
Source text: Inhibition of the mitochondrial fission impacts on other mitochondrial processes, such as mitochondrial metabolism and general and mitochondrial oxidative stress. To confirm, MCF7 cells were stained with MitoSOX and CM-H2DCFDA, and mitochondrial superoxide and total ROS were quantified by flow cytometry. […] Whereas the increase in general ROS goes in line with the increase in mitochondrial content, the boost in the levels of mitochondrial superoxide in mDIV1-treated cells is actually bigger than the observed increased mitochondrial content.
LEVELS OF REACTIVE OXYGEN SPECIES AND MITOCHONDRIAL SUPEROXIDE: For both assays, 2×10^5 MCF7 cells were seeded in 35 mm plates. […] Reactive oxygen species (ROS) production was measured using CM-H2DCFDA (C6827, Invitrogen). Briefly, cells were incubated for 20 minutes at 37° C. with 1 μM CM-H2DCFDA diluted in PBS and then placed in complete media for 20 minutes at 37° C. in the dark, to render the dye fluorescent, according to the manufacturer. Mitochondrial superoxide was measured using MitoSOX Red Mitochondrial Superoxide Indicator (M36008, ThermoFisher Scientific). […] ROS signal and MitoSOX signal was quantified as mean fluorescent intensity of the viable cell population in a Fortessa flow cytometer (BD Bioscience). Results were analysed using FlowJo software.

MCF7 cells [5] = test: Scratch assay (wound closure, migration); details: 48 hours, vs vehicle
Source text: It is though that CSCs are responsible for metastatic spread and growth. Emerging evidence highlights the role of mitochondrial dynamics in tumor cell dissemination. […] In migrating cancer cells mitochondria accumulate at the leading edge where processes requiring high energy occur, such as formation of focal adhesions. Fission seems to be a prerequisite for that efficient relocation of mitochondria. Indeed, upregulation/activation of DRP1 is associated with a migratory and invasive phenotype in cancer. […] Through a scratch assay, were cells were cultured in the presence of either vehicle or mDIVI-1. The scratch was monitored over time and the percentage of wound closure was measured as described previously.
SCRATCH ASSAY: A hundred thousand MCF7 cells per well were seeded in 12-well plates. When cells were attached, a horizontal scratch was performed using the tip of a pipette. Immediately after, the media was removed and either fresh vehicle-containing media or mDIVI-1-containing media were added to the cells for 48 hours. Four replicates were used for each condition. […] The wound closure was monitored by taking pictures of each well every 4 hours. At the end of the treatment, pictures of the wells at 0 and 48 hours were analysed using ImageJ software to calculate wound closure according to the following formula: Percentage wound closure=[(wound area0 h−wound area48 h)/wound area0 h]×100.

MCF7 cells [6] = test: CD24/CD44 expression by FACS
Protocol: In human breast cancers, CSCs were first identified by the profile of expression of the cell surface marker CD24^−/CD44^+.
This is evident in FIGS. 10A and 10B.
The surviving fraction after 2 days and 5 days of growth was analyzed by FACS. MCF7 cells were either trypsinised or spun down and trypsinised and incubated with CD24 (IOTest CD24-PE, Beckman Coulter) and CD44 (APC mouse anti-human CD44, 559942, BD Pharmingen) for 15 minutes on ice. Cells were then rinsed twice in PBS, spun down, and resuspended with DAPI dye (D1306, Molecular probes) at 3 μM in PBS for 10 minutes. Samples were then analyzed by FACS (Fortessa, BD Bioscence). Only the live cell population, identified using the DAPI staining, was analyzed for CD24/CD44 expression. Data were analyzed using FlowJo software.

In the case of `COc1cc(-n2c(S)nc3ccccc3c2=O)c(Cl)cc1Cl` [mDIVI-1, 3-(2,4-Dichloro-5-methoxyphenyl)-2-sulfanyl-4(3H)-quinazolinone], the cytotoxicity at 5 days, 10 μM ([1]; 10 μM, five days) is reported as 20%, the cytotoxicity at 48 h, 50 μM ([1]; 50 μM, 48 hours) is reported as 20% and the cytotoxicity at 5 days, 50 μM ([1]; 50 μM, five days) is reported as over 65%. The cytotoxicity at 48 h, 100 μM ([1]; 100 μM, 48 hours) was 20%, the cytotoxicity at 5 days, 100 μM ([1]; 100 μM, five days) was 85% and the “viability of MCF7 cells” value (MCF7 cells [2]) was “did not decrease”. The mitochondrial morphology (MCF7 cells [3]) was “more interconnected mitochondria”, the “production of total ROS” value (MCF7 cells [4]; 5 days of treatment) was “slight trend toward an increase” and the “general oxidative stress levels” value (MCF7 cells [4]; after exposure to mDIVI-1) was “did not change”. For the same compound, the “reduction of percentage of wound closure” value (MCF7 cells [5]; 10 μM) was 14%, the “reduction of percentage of wound closure” value (MCF7 cells [5]; 50 μM) was 44% and the “abundance of CD24−/CD44+ subpopulation” value (MCF7 cells [6]; MCF7 grown as monolayers, 10 or 50 μM, vs vehicle) was “not reduced”. For the same compound, the “amount of CD24−/CD44+ cells” value (MCF7 cells [6]; MCF7 in suspension, dose-dependent) was “increased”.
